These results are taken from paper PMC9182104 (Molecules, 2022).

Structures are written as SMILES. Values joined by “and” are separate entries in the source; they are usually repeats but may differ in a detail not shown here. Equal values may be shown once. Read-outs that look alike come from different tables or passages of the source.

One data set concerns the target PDE5A (Homo sapiens, UniProt O76074). Briefly: Enzymatic assay of PDE5A (3H-cGMP substrate). The format is biochemical. Conditions: for inhibition at 0.1 µM / inhibition at 0.5 µM: 0.25 h; for IC50: PDE5, mean ± SD of three independent experiments.
The nature of data set [1]: Rat liver microsomal stability. Type of data set: in vitro ADME. To be noted: rat liver microsomes, compound 0.5 μM; read-out: T1/2 in RLM. In general terms: Liver microsomes are vesicles of endoplasmic reticulum, rich in cytochrome P450 enzymes.
In data set [2] the test system is fibrosis markers α-SMA and FN. Details: method as in earlier work. To be noted: rat, bleomycin-induced pulmonary fibrosis; cited from earlier work.
For data set [3] the following is noted: cited from earlier work.
[4] abbreviates: PDE5, compound at 0.1 μM, read-out: Inhibition Ratio (%) 0.1 μM.
[5] abbreviates: PDE5, compound at 0.5 μM, read-out: Inhibition Ratio (%) 0.5 μM.

As to `OCCN(CCO)c1nc(N2CC[C@@H](F)C2)c2nc(N(CCO)CCO)nc(N3CC[C@@H](F)C3)c2n1` [(R)-4h, 2,2′,2″,2‴-((4,8-bis((R)-3-fluoropyrrolidin-1-yl)pyrimido[5,4-d]pyrimidine-2,6-diyl)bis(azanetriyl))tetrakis(ethan-1-ol)], the inhibition at 0.1 µM on PDE5A (setting [4]) came to 27%. Also, at PDE5A (setting [5]), the inhibition at 0.5 µM amounted to 44%.
In the case of `C[C@H]1CCCN1c1nc(N(CCO)CCO)nc2c(N3CCC[C@@H]3C)nc(N(CCO)CCO)nc12` [(S)-4f, 2,2′,2″,2‴-((4,8-bis((S)-2-methylpyrrolidin-1-yl)pyrimido[5,4-d]pyrimidine-2,6-diyl)bis(azanetriyl))tetrakis(ethan-1-ol)], at PDE5A (setting [4]), the inhibition at 0.1 µM was 16%. For the same compound, the inhibition at 0.5 µM at PDE5A (setting [5]) is 42%.
For orientation: IC50 means the concentration at which inhibition is half-maximal. A low value points to inhibition by little substance. Turning to `OCCN(CCO)c1nc(N2CCSCC2)c2nc(N(CCO)CCO)nc(N3CCSCC3)c2n1` [4b, 2,2′,2″,2‴-((4,8-dithiomorpholinopyrimido[5,4-d]pyrimidine-2,6-diyl)bis(azanetriyl))tetrakis(ethan-1-ol)], in data set [1], the half-life at 0.5 μM is 7 min. In addition, on PDE5A (setting [4]), the inhibition at 0.1 µM amounted to 53%. In addition, the inhibition at 0.5 µM on PDE5A (setting [5]) was 75%. Moreover, the half-inhibitory concentration (IC50) on PDE5A was 64 nM and 113 nM.
Consider `OCCN(CCO)c1nc(N2CCOCC2)c2nc(N(CCO)CCO)nc(N3CCOCC3)c2n1` [4a, 2,2′,2″,2‴-((4,8-dimorpholinopyrimido[5,4-d]pyrimidine-2,6-diyl)bis(azanetriyl))tetrakis(ethan-1-ol)], for which the inhibition at 0.1 µM on PDE5A (setting [4]) was 0%. Besides, the inhibition at 0.5 µM on PDE5A (setting [5]) stood at 40%. Moreover, on PDE5A, the IC50 is over 500 nM.
For `OCCN(CCO)c1nc(N2CCC(F)(F)C2)c2nc(N(CCO)CCO)nc(N3CCC(F)(F)C3)c2n1` [4i, 2,2′,2″,2‴-((4,8-bis(3,3-difluoropyrrolidin-1-yl)pyrimido[5,4-d]pyrimidine-2,6-diyl)bis(azanetriyl))tetrakis(ethan-1-ol)], in that order: 24%, 61% and 353 ± 57 nM.
Turning to `OC1CCN(c2nc(N3CCC(F)CC3)c3nc(N4CCC(O)C4)nc(N4CCC(F)CC4)c3n2)C1` (stereo not shown) [6c, 1,1′-(4,8-bis(4-fluoropiperidin-1-yl)pyrimido[5,4-d]pyrimidine-2,6-diyl)bis(pyrrolidin-3-ol)], the inhibition at 0.1 µM on PDE5A (setting [4]) was 5%. The inhibition at 0.5 µM on PDE5A (setting [5]) worked out at 20%.
For `O[C@@H]1CCN(c2nc(N3CCSC3)c3nc(N4CC[C@@H](O)C4)nc(N4CCSC4)c3n2)C1` [(R)-5c, (3R,3′R)-1,1′-(4,8-di(thiazolidin-3-yl)pyrimido[5,4-d]pyrimidine-2,6-diyl)bis(pyrrolidin-3-ol)], the inhibition at 0.1 µM at PDE5A (setting [4]) stood at 45%. Further, the inhibition at 0.5 µM at PDE5A (setting [5]) is 74%. The IC50 on PDE5A stood at 198 ± 45 nM.
On to `OC[C@H]1CCCN(c2nc(N3CCSC3)c3nc(N4CCC[C@H](CO)C4)nc(N4CCSC4)c3n2)C1` [(S)-5b, ((3S,3′S)-(4,8-di(thiazolidin-3-yl)pyrimido[5,4-d]pyrimidine-2,6-diyl)bis(piperidine-1,3-diyl))dimethanol], for which, on PDE5A (setting [4]), the inhibition at 0.1 µM is 13%. For the same compound, on PDE5A (setting [5]), the inhibition at 0.5 µM was 34%.
`OCC1CCCN(c2nc(N3CCSC3)c3nc(N4CCCC(CO)C4)nc(N4CCSC4)c3n2)C1` (stereo not shown) [5b, ((4,8-di(thiazolidin-3-yl)pyrimido[5,4-d]pyrimidine-2,6-diyl)bis(piperidine-1,3-diyl))dimethanol]: on PDE5A (setting [4]), the inhibition at 0.1 µM was 52%. Moreover, the inhibition at 0.5 µM on PDE5A (setting [5]) is 79%. This compound returned an IC50 against PDE5A of 167 ± 41 nM.
For the compound `C[C@H]1CCCN1c1nc(N(CCO)CCO)nc2c(N3CCC[C@@H]3C)nc(N(CCO)CCO)nc12` [(R)-4f, 2,2′,2″,2‴-((4,8-bis((S)-2-methylpyrrolidin-1-yl)pyrimido[5,4-d]pyrimidine-2,6-diyl)bis(azanetriyl))tetrakis(ethan-1-ol)], the “Inhibition Ratio (%) 0.1 μM” value at PDE5A (PDE5, compound at 0.1 μM) is listed as 27%. Further, on PDE5A (PDE5, compound at 0.5 μM), the “Inhibition Ratio (%) 0.5 μM” value worked out at 44%.
In the case of `OC1CCCN(c2nc(N3CCC(F)CC3)c3nc(N4CCCC(O)C4)nc(N4CCC(F)CC4)c3n2)C1` (stereo not shown) [6a, 1,1′-(4,8-bis(4-fluoropiperidin-1-yl)pyrimido[5,4-d]pyrimidine-2,6-diyl)bis(piperidin-3-ol)], on PDE5A (setting [4]), the inhibition at 0.1 µM was determined as 7%. Besides, the inhibition at 0.5 µM at PDE5A (setting [5]) came out at 48%.
For `OCCN(CCO)c1nc(N2CC[C@H](F)C2)c2nc(N(CCO)CCO)nc(N3CC[C@H](F)C3)c2n1` [(S)-4h, 2,2′,2″,2‴-((4,8-bis((S)-3-fluoropyrrolidin-1-yl)pyrimido[5,4-d]pyrimidine-2,6-diyl)bis(azanetriyl))tetrakis(ethan-1-ol)], in data set [1], the half-life at 0.5 μM was 67 min. Further, the inhibition at 0.1 µM at PDE5A (setting [4]) turned out to be 34%. The inhibition at 0.5 µM on PDE5A (setting [5]) came to 55%. Half-maximal inhibition against PDE5A (IC50) was put at 332 ± 56 nM.
With `CC1CCCN1c1nc(N(CCO)CCO)nc2c(N3CCCC3C)nc(N(CCO)CCO)nc12` (stereo not shown) [4f, 2,2′,2″,2‴-((4,8-bis(2-methylpyrrolidin-1-yl)pyrimido[5,4-d]pyrimidine-2,6-diyl)bis(azanetriyl))tetrakis(ethan-1-ol)], the inhibition at 0.1 µM on PDE5A (setting [4]) is 14%. For the same compound, on PDE5A (setting [5]), the inhibition at 0.5 µM turned out to be 60%. In addition, half-maximal inhibition on PDE5A (IC50) was put at 478 ± 3 nM.
On to `OC1CCN(c2nc(N3CCSC3)c3nc(N4CCC(O)CC4)nc(N4CCSC4)c3n2)CC1` [5a, 1,1′-(4,8-di(thiazolidin-3-yl)pyrimido[5,4-d]pyrimidine-2,6-diyl)bis(piperidin-4-ol)], for which the inhibition at 0.1 µM on PDE5A (setting [4]) is 29%. At PDE5A (setting [5]), the inhibition at 0.5 µM is 32%.
On to `OCCN(CCO)c1nc(N2CC[C@H](F)C2)c2nc(N(CCO)CCO)nc(N3CCSC3)c2n1` [9b, (S)-2,2′,2″,2‴-((4-(3-fluoropyrrolidin-1-yl)-8-(thiazolidin-3-yl)pyrimido[5,4-d]pyrimidine-2,6-diyl)bis(azanetriyl))tetrakis(ethan-1-ol)], for which the half-life at 0.5 μM in data set [1] worked out at 10 min. Also, at PDE5A (setting [4]), the inhibition at 0.1 µM was 33%. For the same compound, the inhibition at 0.5 µM on PDE5A (setting [5]) was 81%. Moreover, on PDE5A, half-maximal inhibition (IC50) required 94 ± 9 nM.
With `OCCN(CCO)c1nc(N2CCSC2)c2nc(N(CCO)CCO)nc(N3CCSC3)c2n1` [4g, 2,2′,2″,2‴-((4,8-di(thiazolidin-3-yl)pyrimido[5,4-d]pyrimidine-2,6-diyl)bis(azanetriyl))tetrakis(ethan-1-ol)], the half-life at 0.5 μM in data set [1] was found to be 5 min. Also, the inhibition at 0.1 µM on PDE5A (setting [4]) is 60%. Moreover, at PDE5A (setting [5]), the inhibition at 0.5 µM was 93%. In addition, at PDE5A, the IC50 is 113 nM and 64 nM.
As for `O[C@@H]1CCCN(c2nc(N3CCC(F)CC3)c3nc(N4CCC[C@@H](O)C4)nc(N4CCC(F)CC4)c3n2)C1` [(R)-6a, (3R,3′R)-1,1′-(4,8-bis(4-fluoropiperidin-1-yl)pyrimido[5,4-d]pyrimidine-2,6-diyl)bis(piperidin-3-ol)], the inhibition at 0.1 µM on PDE5A (setting [4]) stood at 8%. The inhibition at 0.5 µM on PDE5A (setting [5]) is 36%.
For `OC[C@@H]1CCCN(c2nc(N3CCSC3)c3nc(N4CCC[C@@H](CO)C4)nc(N4CCSC4)c3n2)C1` [(R)-5b, ((3R,3′R)-(4,8-di(thiazolidin-3-yl)pyrimido[5,4-d]pyrimidine-2,6-diyl)bis(piperidine-1,3-diyl))dimethanol], half-maximal inhibition against PDE5A (IC50) required 109 ± 20 nM.
Take `OCCN(CCO)c1nc(N2CCC(F)CC2)c2nc(N(CCO)CCO)nc(N3CCC(F)CC3)c2n1` [4c, 2,2′,2″,2‴-((4,8-bis(4-fluoropiperidin-1-yl)pyrimido[5,4-d]pyrimidine-2,6-diyl)bis(azanetriyl))tetrakis(ethan-1-ol)]: in data set [1], the half-life at 0.5 μM turned out to be 44 min. Further, the inhibition at 0.1 µM at PDE5A (setting [4]) came out at 31%. The inhibition at 0.5 µM at PDE5A (setting [5]) came out at 62%. The compound also had an IC50 at PDE5A of 343 ± 18 nM.
Consider `OCC1CCCN(c2nc(N3CCC(F)CC3)c3nc(N4CCCC(CO)C4)nc(N4CCC(F)CC4)c3n2)C1` (stereo not shown) [6b, ((4,8-bis(4-fluoropiperidin-1-yl)pyrimido[5,4-d]pyrimidine-2,6-diyl)bis(piperidine-1,3-diyl))dimethanol], for which the inhibition at 0.1 µM on PDE5A (setting [4]) was determined as 0%. Moreover, the inhibition at 0.5 µM at PDE5A (setting [5]) came out at 7%.
For `OCCN(CCO)c1nc(N2CCCC2)c2nc(N(CCO)CCO)nc(N3CCCC3)c2n1` [4e, 2,2′,2″,2‴-((4,8-di(pyrrolidin-1-yl)pyrimido[5,4-d]pyrimidine-2,6-diyl)bis(azanetriyl))tetrakis(ethan-1-ol)], in that order: 7% and under 50%.
On to `O[C@H]1CCN(c2nc(N3CCSC3)c3nc(N4CC[C@H](O)C4)nc(N4CCSC4)c3n2)C1` [(S)-5c, (3S,3′S)-1,1′-(4,8-di(thiazolidin-3-yl)pyrimido[5,4-d]pyrimidine-2,6-diyl)bis(pyrrolidin-3-ol)], for which the inhibition at 0.1 µM on PDE5A (setting [4]) is 36%. In addition, the inhibition at 0.5 µM on PDE5A (setting [5]) is 49%.
For `OCCN(CCO)c1nc(N2CCC(F)(F)CC2)c2nc(N(CCO)CCO)nc(N3CCC(F)(F)CC3)c2n1` [4d, 2,2′,2″,2‴-((4,8-bis(4,4-difluoropiperidin-1-yl)pyrimido[5,4-d]pyrimidine-2,6-diyl)bis(azanetriyl))tetrakis(ethan-1-ol)], in data set [1], the half-life at 0.5 μM came to 19 min. On PDE5A (setting [4]), the inhibition at 0.1 µM is 41%. For the same compound, at PDE5A (setting [5]), the inhibition at 0.5 µM stood at 72%. Moreover, at PDE5A, it took 362 ± 81 nM to reach half-maximal inhibition (IC50).
For `OCCN(CCO)c1nc(N2CCSC2)c2nc(N(CCO)CCO)nc(N3CCSCC3)c2n1` [9a, 2,2′,2″,2‴-((4-(thiazolidin-3-yl)-8-thiomorpholinopyrimido[5,4-d]pyrimidine-2,6-diyl)bis(azanetriyl))tetrakis(ethan-1-ol)], in that order: 4 min, 45%, 91% and 100 ± 1 nM.
On to `OCCN(CCO)c1nc(N2CCCCC2)c2nc(N(CCO)CCO)nc(N3CCCCC3)c2n1` [DIP, Dipyridamole, reference compound], for which the “levels of fibrosis markers α-SMA and FN” value in data set [2] is “significantly decreased”. Moreover, at PDE5A (read-out: Inhibition Ratio (%) 0.1 μM, PDE5, compound at 0.1 μM), the inhibition at 0.1 µM is 17%. The inhibition at 0.5 µM on PDE5A (read-out: Inhibition Ratio (%) 0.5 μM, PDE5, compound at 0.5 μM) worked out at 84%. In data set [3], the solubility in water result is listed as “practically insoluble in water”.
